IC50 and inhibition in vivo data for 38 compounds are collected here from patent US9012446B2, “Amino-oxazines and amino-dihydrothiazine compounds as beta-secretase modulators and methods of use” (Amgen Inc., priority 2010, dated 2015).

SMILES strings stand for the structures. Read-outs that look alike come from different tables or passages of the source.

The subject of one assay is Aβ40. Nature of the assay: In vitro BACE cell-based assay (Aβ40 sandwich ELISA, cells stably expressing APP). The conditions noted are these: Homo sapiens. In outline: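 Read-out is Aβ40 in cell supernatants, quantified by sandwich ELISA (capture 3 h, detection 2 h, both 4° C) with Delfia time-resolved fluorescence. Cells stably expressing APP were dosed across 10 concentrations from 100 μM or 10 μM top, 0.1% DMSO final; IC50 fitted from percent of control.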
A general note: ELISA stands for enzyme-linked immunosorbent assay.

Another assay deals with Abeta 40. Nature of the assay: In vivo inhibition of beta-secretase: Abeta 40 reduction in CSF and brain of the rat. Particulars: 10 mpk, after 4 hrs. The source says:
In Vivo Inhibition of Beta-Secretase
Several animal models, including mouse, rat, dog, and monkey, may be used to screen for inhibition of beta-secretase activity in vivo following administration of a test compound sample. Animals used in this invention can be wild type, transgenic, or gene knockout animals. For example, the Tg2576 mouse model, prepared and conducted as described in Hsiao et al., 1996, Science 274, 99-102, and other non-transgenic or gene knockout animals are useful to analyze in vivo inhibition of Amyloid beta peptide (Abeta) production in the presence of inhibitory test compounds. Generally, 2 to 18 month old Tg2576 mice, gene knockout mice or non-transgenic animals are administered test compounds formulated in vehicles, such as cyclodextran, phosphate buffers, hydroxypropyl methylcellulose or other suitable vehicles. One to twenty-four hours following the administration of compound, animals are sacrificed, and brains as well as cerebrospinal fluid (CSF) and plasma are removed for analysis of A-beta levels and drug or test compound concentrations (Dovey et al., 2001, Journal of Neurochemistry, 76,173-181) Beginning at time 0, animals are administered by oral gavage, or other means of delivery such as intravenous injection, an inhibitory test compound of up to 100 mg/kg in a standard, conventional formulation, such as 2% hydroxypropyl methylcellulose, 1% Tween80. A separate group of animals receive 2% hydroxypropyl methylcellulose, 1% Tween80 alone, containing no test compound, and serve as a vehicle-control group. At the end of the test period, animals are sacrificed and brain tissues, plasma or cerebrospinal fluid are collected. Brains are either homogenized in 10 volumes (w/v) of 0.2% diethylamine (DEA) in 50 mM NaCl (Best et al., 2005, Journal of Pharmacology and Experimental Therapeutics, 313, 902-908), or in 10 volumes of 0.5% TritonX-100 in Tris-buffered saline (pH at about 7.6). Homogenates are centrifuged at 355,000 g, 4° C. for 30 minutes. CSF or brain supernatants are then analyzed for the presence of A-beta peptide by specific sandwich ELISA assays based on ECL (Electrochemiluminescence) technology. For example, rat Abeta40 is measured using biotinylated-4G8 (Signet) as a capture antibody and Fab40 (an in-house antibody specific to the C-terminal of Abeta40) as a detection antibody. For example, 4 hours after administration of 30 mg/kg oral dose of the test compound in 2% hydroxypropyl methylcellulose, 1% Tween80 (pH2.2) to 200 g male Sprague Dawley rats, amyloid beta peptide levels are measured for reduction by X % and Y % in cerebrospinal fluid and brain, respectively, when compared to the levels measured in the vehicle-treated rats. • Actual vehicles used: Oral: 2% HPMC, 1% Tween80, pH 2.2 • IV: 5% EtOH, 45% Propylene glycol in 5% Dextrose
The compounds of the invention may be shown to reduce the formation and/or deposition of amyloid beta peptide in the cerebrospinal fluid (CSF) as well as in the brain of a mouse or rat at either 3 mpk, 10 mpk or 30 mpk (mpk=mg compound per kg weight of the animal) dosing concentrations after 4 hrs.

A further assay has as its target BACE (Homo sapiens, UniProt P56817). Briefly: In vitro enzymatic BACE FRET assay. Type of assay: biochemical. Particulars: average IC50, enzyme assay; read-out: BACE 1 FRET assay. In outline:
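Fluorescence […] after Tris quench reports cleavage of a 50 nM quenched peptide substrate over 1 h. Beforehand, 0.2 nM enzyme sits 1 h with inhibitor dilutions. Buffer: 0.05 M acetate pH 4.2, 100 uM genapol, 10% DMSO final.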

[1] abbreviates: HEK293, average IC50, read-out: HEK cell assay.

Sequence of BACE (P56817 46-501, species assumed): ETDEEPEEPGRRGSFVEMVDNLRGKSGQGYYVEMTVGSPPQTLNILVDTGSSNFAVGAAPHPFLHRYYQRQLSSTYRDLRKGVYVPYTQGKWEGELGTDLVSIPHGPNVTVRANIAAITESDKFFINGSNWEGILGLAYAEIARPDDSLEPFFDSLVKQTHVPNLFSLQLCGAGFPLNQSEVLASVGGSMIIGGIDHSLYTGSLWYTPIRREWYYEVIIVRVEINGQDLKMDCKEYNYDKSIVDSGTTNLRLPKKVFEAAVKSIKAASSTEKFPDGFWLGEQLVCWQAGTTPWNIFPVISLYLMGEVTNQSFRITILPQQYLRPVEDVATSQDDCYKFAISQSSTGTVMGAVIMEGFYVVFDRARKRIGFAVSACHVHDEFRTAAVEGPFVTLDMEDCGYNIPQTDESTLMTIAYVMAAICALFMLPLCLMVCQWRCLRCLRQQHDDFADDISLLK

In the assay on Aβ40 (HEK293, average IC50, cell assay, HEK cells), `NC1=N[C@@]2(COC1)c1cc(-c3cccnc3F)ccc1Oc1c(F)cc(N3CCC(F)(F)CC3)cc12` [Example 86, (S)-2′-(4,4-difluoropiperidin-1-yl)-4′-fluoro-7′-(2-fluoropyridin-3-yl)-2,6-dihydrospiro[[1,4]oxazine-3,9′-xanthen]-5-amine] gave an IC50 of 2.6 nM. Besides, the inhibition in vivo at 10 mg/kg came to 12% in the assay with Abeta 40 (Abeta 40, rat CSF, read-out: % reduction of rat CSF levels at 10 pmk) and 11% in the assay with Abeta 40 (Abeta 40, rat brain, read-out: % reduction of rat brain levels at 10 mpk).
For the compound `CC(C)(C)C#Cc1ccc2c(c1)[C@@]1(COCC(N)=N1)c1cc(-c3ccnc(F)c3)cnc1O2` [compound 219], the IC50 at BACE amounted to 5.9 nM; with Aβ40 (setting [1]) it was 24.8 nM.
For `COc1nc(-c2cccnc2)cc2c1Oc1ccc(-c3cccnc3F)cc1C21CCOC(N)=N1` (centres unmarked) [compound 221], in that order: 49.8 nM and 119 nM.
With `N#Cc1cccc(-c2ccc3c(c2)[C@]2(CCOC(N)=N2)c2cc(-c4ccnc(F)c4)nc(F)c2O3)c1` [compound 222], the IC50 came out at 170 nM on BACE and 1580 nM with Aβ40 (setting [1]).
The matching figures for `N#Cc1cccc(-c2ccc3c(c2)[C@@]2(CCOC(N)=N2)c2cc(C4=CCCOC4)nc(F)c2O3)c1` [compound 223]: 0.8 nM and 1.4 nM.
For `N#Cc1cccc(-c2ccc3c(c2)[C@]2(CCOC(N)=N2)c2cc(C4=CCCOC4)nc(F)c2O3)c1` [compound 224], in that order: 541 nM and 982 nM.
As for `N#Cc1cccc(-c2ccc3c(c2)[C@@]2(CCOC(N)=N2)c2cc(-c4ccnc(F)c4)nc(F)c2O3)c1` [compound 225], the IC50 at BACE is 0.7 nM; in the assay on Aβ40 (setting [1]), 3 nM.
The matching figures for `NC1=N[C@]2(CCO1)c1cc(-c3cccnc3F)ccc1Oc1c2cc(-c2cccnc2)nc1F` [compound 227]: 489 nM and 101 nM.
Take `NC1=N[C@@]2(CCO1)c1cc(-c3cncc(F)c3)ccc1Oc1c2cc(C2=CCOCC2)nc1F` [compound 228]: the IC50 on BACE was 0.3 nM; in the assay on Aβ40 (setting [1]), 0.7 nM.
The matching figures for `NC1=N[C@]2(CCO1)c1cc(-c3cncc(F)c3)ccc1Oc1c2cc(C2=CCOCC2)nc1F` [compound 229]: 149 nM and 127 nM.
As for `NC1=N[C@@]2(CCO1)c1cc(-c3cccnc3)ccc1Oc1c2cc(-c2cncc(F)c2)nc1F` [compound 231], the IC50 amounted to 0.8 nM at BACE and 0.3 nM with Aβ40 (setting [1]).
For `NC1=N[C@]2(CCO1)c1cc(-c3cncc(F)c3)ccc1Oc1c2cc(C2=CCCOC2)nc1F` [compound 232], in that order: 793 nM and 164 nM.
Turning to `N#Cc1cccc(-c2ccc3c(c2)[C@]2(CCOC(N)=N2)c2cc(C4=CCOCC4)nc(F)c2O3)c1` [compound 233], the IC50 was 1580 nM on BACE and 108 nM in the assay on Aβ40 (setting [1]).
In the case of `N#Cc1cccc(-c2ccc3c(c2)[C@@]2(CCOC(N)=N2)c2cc(C4=CCOCC4)nc(F)c2O3)c1` [compound 234], the IC50 on BACE and with Aβ40 (setting [1]) was 0.7 nM each time.
In the case of `NC1=N[C@@]2(CCO1)c1cc(-c3cncc(F)c3)ccc1Oc1c2cc(C2=CCCOC2)nc1F` [compound 236], the IC50 on BACE was 0.8 nM; in the assay with Aβ40 (setting [1]), 0.5 nM.
As to `NC1=N[C@]2(CCO1)c1cc(-c3cccnc3F)ccc1Oc1c2cc(C2=CCCOC2)nc1F` [compound 238], the IC50 was 293 nM on BACE and 171 nM in the assay with Aβ40 (setting [1]).
For `NC1=N[C@]2(CCO1)c1cc(-c3cccnc3)ccc1Oc1c2cc(-c2ccnc(F)c2)nc1F` [compound 240], the IC50 at BACE was determined as 152 nM; in the assay with Aβ40 (setting [1]), 206 nM.
`NC1=N[C@@]2(COC1)c1cc(-c3cccnc3F)ccc1Oc1c2cc(Cl)nc1F` [compound 242]: the IC50 on BACE came out at 1.2 nM; in the assay on Aβ40 (setting [1]), 16 nM.
For `NC1=N[C@@]2(COC1)c1cc(-c3cccnc3F)ccc1Oc1c2cc(-c2cccnc2)nc1F` [compound 243], the figures for the IC50 at BACE and in the assay on Aβ40 (setting [1]) were 0.3 nM and 0.5 nM, respectively.
In the case of `NC1=N[C@]2(COC1)c1cc(-c3cccnc3F)ccc1Oc1c2cc(Cl)nc1F` [compound 244], the results for the IC50 at BACE and in the assay with Aβ40 (setting [1]) were 481 nM and 3150 nM, respectively.
Take `NC1=N[C@@]2(COC1)c1cc(-c3cccnc3F)ccc1Oc1c2cc(-c2cncc(F)c2)nc1F` [compound 245]: the IC50 on BACE and with Aβ40 (setting [1]) was 0.3 nM each time.
For `NC1=N[C@@]2(COC1)c1cc(-c3cccnc3)ccc1Oc1c2cc(C2=CCCOC2)nc1F` [compound 246], the figures for the IC50 on BACE and with Aβ40 (setting [1]) were 0.4 nM and 0.1 nM, respectively.
Turning to `NC1=N[C@@]2(COC1)c1cc(-c3cccnc3F)ccc1Oc1c2cc(C2=CCOCC2)nc1F` [compound 247], the IC50 is 0.6 nM at BACE and 0.8 nM with Aβ40 (setting [1]).
The matching figures for `CC(C)(C)COc1cc2c(cn1)Oc1ccc(Br)cc1[C@@]21COCC(N)=N1` [compound 251]: 19.6 nM and 62.5 nM.
The matching figures for `COc1cc2c(cn1)Oc1ccc(-c3cccc(F)c3)cc1[C@@]21COCC(N)=N1` [compound 252]: 10.6 nM and 50 nM.
For `CCOc1cc2c(cn1)Oc1ccc(-c3cncc(Cl)c3)cc1[C@@]21COCC(N)=N1` [compound 253], the values for the IC50 on BACE and in the assay with Aβ40 (setting [1]) were 1 nM and 1.5 nM, respectively.
As for `CC(C)COc1cc2c(cn1)Oc1ccc(-c3cncc(F)c3)cc1[C@@]21COCC(N)=N1` [compound 254], the IC50 on BACE turned out to be 0.5 nM; in the assay with Aβ40 (setting [1]) it was 0.9 nM.
Turning to `CC(C)COc1cc2c(cn1)Oc1ccc(-c3cccnc3F)cc1[C@@]21COCC(N)=N1` [compound 255], the IC50 is 0.5 nM on BACE and 1 nM in the assay on Aβ40 (setting [1]).
The matching figures for `CCOc1cc2c(cn1)Oc1ccc(-c3cccc(F)c3)cc1[C@@]21COCC(N)=N1` [compound 256]: 4.3 nM and 25.5 nM.
For `NC1=N[C@@]2(COC1)c1cc(-c3cncc(F)c3)ccc1Oc1cnc(Cl)cc12` [compound 257], in that order: 32.8 nM and 42 nM.
`CC(C)Oc1cc2c(cn1)Oc1ccc(-c3cccnc3)cc1[C@@]21COCC(N)=N1` [compound 258]: the IC50 on BACE stood at 2.7 nM; in the assay on Aβ40 (setting [1]), 4.2 nM.
The matching figures for `CC(C)Oc1cc2c(cn1)Oc1ccc(-c3cccnc3F)cc1[C@@]21COCC(N)=N1` [compound 259]: 1.2 nM and 4 nM.
Turning to `CCOc1cc2c(cn1)Oc1ccc(-c3cccnc3F)cc1[C@@]21COCC(N)=N1` [compound 260], the results for the IC50 at BACE and in the assay with Aβ40 (setting [1]) were 1.6 nM and 2.1 nM, respectively.
`NC1=N[C@]2(CCO1)c1cc(-c3cccnc3F)ccc1Oc1ncc(-c3ccnc(F)c3)cc12` [compound 267]: the IC50 is 6670 nM on BACE and 3560 nM with Aβ40 (setting [1]).
The matching figures for `NC1=N[C@@]2(CCO1)c1cc(-c3cccnc3F)ccc1Oc1ncc(C3=CCCOC3)cc12` [compound 268]: 11.6 nM and 21.7 nM.
The matching figures for `NC1=N[C@@]2(CCO1)c1cc(-c3cccnc3F)ccc1Oc1ncc(C3=CCOCC3)cc12` [compound 269]: 12 nM and 5.6 nM.
The matching figures for `NC1=N[C@]2(CCS1)c1cc(-c3cccnc3F)ccc1Oc1ncc(C3=CCCOC3)cc12` [compound 271]: 1040 nM and 2540 nM.
With `NC1=N[C@@]2(CCS1)c1cc(-c3cccnc3F)ccc1Oc1ncc(C3=CCCOC3)cc12` [compound 272], the figures for the IC50 at BACE and in the assay with Aβ40 (setting [1]) were 4 nM and 11 nM, respectively.
